Source: patent publication US20020197365A1, “Highly acidic metalated mixture of inorganic acids” (priority 2001, published 2002)

Conditions: in vivo

O=S(=O)(O)O [sulfuric acid]
irritation or injury of a hand put into the solution: an irritation would occur within a relatively short span of time
